PubChem BioAssay (NCI)
Several values for one entry are separate records, joined by “and”; a condition that tells them apart may be missing. Equal entries are not always repeated.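 Five concentrations, 48 hours, 96-well plates. GI50 is the concentration that inhibits growth by half. Definition used: TGI = concentration required for complete inhibition of growth.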

What was measured:
Assay in all cases: inhibition of tumour cell growth, NCI panel, 48 h
MALME-3M melanoma = test system: MALME-3M melanoma
TK-10 renal = test system: TK-10 renal
A549 NSCLC = test system: A549 NSCLC
HCC-2998 colon = test system: HCC-2998 colon
NCI-H522 lung = test system: NCI-H522 lung
OVCAR-3 ovarian = test system: OVCAR-3 ovarian
U251 CNS = test system: U251 CNS
KM12 colon = test system: KM12 colon
A498 renal = test system: A498 renal
HCT-116 colon = test system: HCT-116 colon

| Structure (SMILES) | GI50 (MALME-3M melanoma) | TGI (MALME-3M melanoma) | GI50 (TK-10 renal) | TGI (TK-10 renal) | GI50 (A549 NSCLC) | TGI (A549 NSCLC) | GI50 (HCC-2998 colon) | TGI (HCC-2998 colon) | GI50 (NCI-H522 lung) | TGI (NCI-H522 lung) | GI50 (OVCAR-3 ovarian) | TGI (OVCAR-3 ovarian) | GI50 (U251 CNS) | TGI (U251 CNS) | GI50 (KM12 colon) | TGI (KM12 colon) | GI50 (A498 renal) | TGI (A498 renal) | GI50 (HCT-116 colon) | TGI (HCT-116 colon) |
| --- | --- | --- | --- | --- | --- | --- | --- | --- | --- | --- | --- | --- | --- | --- | --- | --- | --- | --- | --- | --- |
| C=C1CC2(OC1=O)C(=O)Nc1ccccc12 (stereo not drawn) | 1.24 µM | 2.64 µM | 1.8 µM | 4.09 µM | 12.9 µM | 34.3 µM | 9.35 µM | 23.2 µM | 0.542 µM | 2.03 µM | 1.11 µM | 2.77 µM | 13.1 µM | 30.5 µM | 10.4 µM | 27.2 µM | 5.91 µM | 19.4 µM | 3.16 µM | 10.5 µM |
| Cn1cc2ccccc2c1-c1nc(F)nc(OCC(=O)[C@H]2CCC3[C@@H]4CCC5=CC(=O)CC[C@]5(C)C4[C@@H](O)C[C@@]32C)n1 (stereo partly drawn) |  | 33.8 µM |  | 47.9 µM |  | > 77.8 µM |  | 48.4 µM |  | 31.2 µM |  | 33.2 µM |  | 36 µM |  | 33.3 µM |  | > 54 µM |  | 27 µM |
| N#CC1CC2(CCN1C(=O)c1ccccc1)OCCO2 (stereo not drawn) |  | > 100 µM |  | > 100 µM |  | > 100 µM |  | > 100 µM |  | 78.2 µM |  | > 100 µM |  | > 100 µM |  | > 100 µM |  | > 100 µM |  | > 100 µM |
| NCCCNCCCCNC(=O)C(O)NC(=O)CCCCCCN=C(N)N (stereo not drawn) | 1920 µM | 628 µM and 3050 µM | > 4030 µM | > 5000 µM | 1640 µM | 750 µM and > 5000 µM | 2720 µM | > 4260 µM | 1350 µM | 636 µM and 2860 µM | 1750 µM | 750 µM and > 5000 µM | 2080 µM | 636 µM and > 4540 µM | 1360 µM | 619 µM and > 5000 µM | 1500 µM | > 5000 µM | 1830 µM | 750 µM and > 4790 µM |
| O=C1C(Cl)=C(NCc2ccco2)C(=O)c2ccccc21 | 2.03 µM | 4.37 µM | 22.1 µM | > 100 µM | 7.61 µM | 31.1 µM | 21.7 µM | 50.8 µM | 7.15 µM | > 55.2 µM | 4.93 µM | 19.4 µM | 17 µM | > 93.7 µM | 8.67 µM | > 100 µM | 17.7 µM | 59.2 µM | 7.09 µM | 49.5 µM |
| COc1cc2c(cc1OC)C13CCN4CC5CCOC6CC(=O)N2C1C6C5CC43 (stereo not drawn) |  | > 100 µM |  | > 100 µM |  | > 100 µM |  | > 100 µM |  | > 100 µM |  | > 100 µM |  | > 100 µM |  | > 100 µM |  | > 100 µM |  | > 100 µM |
| CC(=O)OCc1cc2ccccc2nc1C(Br)(Br)Br |  | 18.1 µM |  | 36.7 µM |  | 31.2 µM |  | 29.3 µM |  | 34 µM |  | 30.2 µM |  | 28.1 µM |  | 27.6 µM |  | 42.8 µM |  | 31.6 µM |
| COc1ccc(-c2ccc(-c3ccc(C(=N)N)o3)o2)cc1 | 3.97 µM | 19.1 µM | 7.97 µM | 21 µM | 1.49 µM | 4.79 µM | 1.58 µM | 3.23 µM | 1.09 µM | 3.48 µM | 0.924 µM | 2.74 µM | 1.74 µM | 4.12 µM | 0.585 µM | 6.73 µM | 1.76 µM | 7.48 µM | 1.07 µM | 3.01 µM |
| O=C1C(=Cc2c(O)cc(O)cc2O)C(=O)c2ccccc21 |  | > 59.3 µM |  | > 67.5 µM |  | > 100 µM |  | > 56.4 µM |  | > 60.3 µM |  | > 55 µM |  | > 57.2 µM |  | > 51.4 µM |  | 98.7 µM |  | > 53.7 µM |
| CCCCCCCc1cc2c3c(nc4ccccc42)C(=O)c2cccnc2-c3n1 | 5.07 µM | 10.9 µM | 2.4 µM | 4.41 µM | 2.46 µM | 11.9 µM | 2.93 µM | 7.56 µM | 1.14 µM | 3.07 µM | 2.3 µM | 8.97 µM | 2.96 µM | 8.05 µM | 1.45 µM | 3.11 µM | 6.46 µM | 17.5 µM | 0.375 µM | 3.35 µM |
| CC(=O)C1=C(O)CC2CC3c4[nH]c5ccccc5c4CCN3CC2C1 (stereo not drawn) |  | > 100 µM |  | > 100 µM |  | > 100 µM |  | > 100 µM |  | > 100 µM |  | > 100 µM |  | > 100 µM |  | > 100 µM |  | > 100 µM |  | > 100 µM |
| Cn1cc(C(=O)C[n+]2ccccc2)c2ccccc21 |  | > 100 µM |  | > 100 µM |  | > 100 µM |  | > 100 µM |  | > 100 µM |  | > 100 µM |  |  |  | > 100 µM |  | 92.4 µM |  | > 100 µM |
| O=C(/C=C/c1ccc(C(F)(F)F)cc1)c1ccc(Nc2nc(NCCO)nc(Nc3ccc(Cl)cc3)n2)cc1 | 13.9 µM | 28.5 µM |  |  | 3.48 µM | 13.5 µM | 2.93 µM | 8.17 µM | 7.82 µM | 23.6 µM | 2.75 µM | 8.12 µM | 2.18 µM | 5.57 µM | 2.13 µM | 4.84 µM | 1.67 µM | 12.6 µM | 1.48 µM | 2.83 µM |
| COC(C)(C)C/C=C/C(C)=C/C=C/C(C)=C\C=C\C(C)=C\C=C\C=C(C)\C=C\C=C(C)\C=C\C=C(C)\C=C\CC(C)(C)OC | > 150 µg/mL | > 150 µg/mL | > 150 µg/mL | > 150 µg/mL | > 150 µg/mL | > 150 µg/mL | > 150 µg/mL | > 150 µg/mL | > 150 µg/mL | > 150 µg/mL |  |  | > 150 µg/mL | > 150 µg/mL |  |  | > 150 µg/mL | > 150 µg/mL | > 150 µg/mL | > 150 µg/mL |
| COC(=O)[C@@H](C)C[C@H](Cc1ccccc1)NC(=O)c1csc([C@@H](C[C@H](C(C)C)N(C)C(=O)[C@@H](NC(=O)[C@H]2CCCCN2C)C2CC2)OC(C)=O)n1 | 0.000312 µM |  |  |  | 0.0027 µM and 0.00165 µM | > 16.5 µM | 0.000338 µM and 0.00165 µM | > 16.5 µM | 0.000247 µM and < 0.00165 µM | 0.000988 µM and < 0.00165 µM | 4.97e-05 µM and < 0.00165 µM | 0.00379 µM and < 0.00165 µM | 0.000457 µM and 0.00165 µM | > 16.5 µM | 0.000317 µM and 0.00165 µM | > 16.5 µM | 0.000862 µM |  | 0.00043 µM and 0.00165 µM | 0.011 µM |
| N#CC1CCCCCCCCCCC(=O)N(CCCl)C1=O (stereo not drawn) |  | > 100 µM |  | > 100 µM |  | > 100 µM |  | > 100 µM |  | > 100 µM |  | > 100 µM |  | > 100 µM |  | > 100 µM |  | > 100 µM |  |  |
